According to article PMC6010047, “Design, synthesis and biological evaluation of novel hydroxy-phenyl-1H-benzimidazoles as radical scavengers and UV-protective agents” (Journal of Enzyme Inhibition and Medicinal Chemistry, 2017):
Read-outs that look alike come from different tables or passages of the source.

Key:
[1] = Ferric reducing antioxidant of potency (FRAP) assay; assay type: biochemical; conditions: Trolox equivalents; mean ± SE of three experiments
Description: The ferric reducing ability of each standard solution was measured according to a modified protocol described by Guihua et al.[26]. The reagent for analysis was freshly prepared by mixing the following solutions in the reported ratio 10/1/1 (v:v:v) (i) 0.1 M acetate buffer pH 3.6, (ii) TPTZ (2,4,6-Tri(2-pyridyl)-s-triazine) 10 mmol/L in 40 mmol/HCl, (iii) ferric chloride 20 mmol/L. To a 1.9 mL of reagent were added 0.1 mL of sample proper diluted or solvent when blank was performed. Readings at fixed wavelength of the absorption maximum (593 nm) were done after 30 min, using a UV-VIS spectrophotometer; it was evaluated the absorbance increase of sample solution against the absorbance of blank reaction as parameter to calculate the antioxidant activity. The antioxidant activity is given as Trolox activity since this standard was used to perform the calibration curves.

[2] = PCL antioxidant activity of finished formulations; assay type: biochemical; conditions: 3% (w/w) compound in O/W formulation
Description: (§1) PCL assay, based on the methodology of Popov and Lewin[23], was used to measure the antioxidant activity of synthesized compounds with a Photochem® apparatus (Analytik Jena, Leipzig, Germany) against superoxide anion radicals generated from luminol, a photosensitizer, when exposed to UV light (Double Bore® phosphor lamp, output 351 nm, 3 mWatt/cm^2). The antioxidant activity was measured using ACL (Antioxidant Capacity of Liposoluble substance) kit provided by the manufacturer designed to measure the antioxidant activity of lipophilic compounds[24]. […] The areas under the curves were calculated using the PCLsoft control and analysis software. […] This inhibition was used as a parameter for quantification and related to the decrease in the integral of PCL intensities caused by varying concentrations of Trolox. The observed inhibition of the signal was plotted against the concentration of Trolox added to the assay medium. The concentration of the added tested compounds was such that the generated luminescence during the 180-s sampling interval fell within the limits of the standard curve. The antioxidant assay was carried out in triplicate for each sample, and 20 μL of the diluted compound in HPLC-grade methanol (ACL) was sufficient to correspond to the standard curve.
It was decided to use a standard formulation oil in water (O/W).
In particular, molecules with phenolic hydroxyl in the ortho position on the phenyl ring (4, 5, 9, 10 and 13) had better and higher UVA/UVB ratio and critical wavelength, although they have the SPF value less than lead compound. Formulation containing products 2 and 14, which have a phenolic hydroxyl at the para position on the phenyl ring, have shown good values in terms of SPF, greater UVA protection factor, critical wavelength and also higher UVA/UVB ratio than PBSA, but yet lower than the molecules containing hydroxyl on the phenyl ring in ortho. […] Compound 8 has lower SPF than 3, but higher than PBSA; in comparison with 3, molecules 8 and 12 presented higher UVA/UVB ratio and critical wavelength. Regarding compounds with three hydroxyls on phenyl ring, they have good UVA filtering parameters, their critical wavelengths are the highest and SPF is higher than PBSA for molecule 6, while SPF of 15 is slightly lower and decreases further in molecule 11. Thus, it can be observed that parameters are mainly influenced by the number and position of the hydroxyl groups on the phenyl ring rather than the substituent in the 5-position of benzimidazole. Concomitantly, all formulations were analyzed to assess whether the antioxidant power was maintained. […] In Table 4, the antioxidant activity, measured by PCL method, of finished formulations is reported; as it can be seen results were in agreement with that obtained testing the pure compounds. […] Formulations containing compounds 3, 8 and 12 presented highest antioxidant capabilities; these are followed, but with important decrease in antioxidant capacity, by formulations with compounds 6, […] and 15 that have three hydroxyl moieties on phenyl ring.

[3] = 1,1-Diphenyl-2-picryl-hydrazyl radical (DPPH) assay; assay type: biochemical; conditions: Trolox equivalents; mean ± SE of three experiments
Description: To 1.5 mL DPPH methanolic solution (0.5 mM) was added 0.750 mL of sample solution proper diluted. Samples absorbance measurements were evaluated with a UV-VIS spectrophotometer (Thermo Spectronic Helios γ, Cambridge, UK) at fixed wavelength of 517 nm. Blank sample was prepared adding methanol to DPPH solution and Trolox was used as standard reference to achieve a calibration curve. The radical-scavenging activity is expressed as inhibition ratio of initial concentration of DPPH radical and is calculated according to the formula: Inhibition percentage (Ip) = [(AB-As)/AB]·100; where AB and As are, respectively, the absorbance values of blank reaction and of the tested sample[25].

[4] = Photochemiluminescence (PCL) method, ACL kit; assay type: biochemical; conditions: pure compound; Trolox equivalents; mean ± SE of three experiments
Description: as §1

NCTC-2544 cells = assay: Phototoxicity / cellular photoprotection, UVA or UVB irradiation, MTT test; conditions: for % Cell survival UVA 20 J/cm^2 / % Cell survival UVB 0.5 J/cm^2 / % Cell survival UVB 1 J/cm^2: 50 μM, vs nonirradiated cells (100%), 48 h after irradiation; for viability at 20 µM / viability at 50 µM: Homo sapiens, NCTC-2544, light or radiation study, 48 h
Description: An immortalized, nontumorigenic cell line of human keratinocytes (NCTC-2544) was grown in a DMEM medium (Sigma-Aldrich Milan, Italy), supplemented with 115 units/mL of penicillin G, 115 μg/mL streptomycin, and 10% fetal calf serum (Invitrogen, Milan, Italy). Individual wells of a 96-well tissue culture microtiter plates (Falcon, Becton–Dickinson) were inoculated with 100 μL of complete medium containing 5 × 10^3 NCTC-2544. The plates were incubated at 37 °C in a humidified (5% CO2) incubator for 18 h prior to the experiments.
Two HPW 125 Philips lamps, mainly emitting at 365 nm, were used for UVA irradiation experiments. The spectral irradiance of the source was 4.0 mWcm^−^2 as measured at the sample level by a Cole-Parmer Instrument Company radiometer (Niles, IL) equipped with a 365-CX sensor. One or two PL-S 9 W/12 Philips lamps (280–370 nm; peak at 315 nm) were used for UVB irradiation experiments. To restrict the incident radiation to the range 305–370 nm, a glass filter (Schott SWG-305) was used. Total energy was detected by the same equipped with a sensor (model CX-312).
After medium removal, 100 μL of the drug solution, dissolved in DMSO and diluted with Hank’s Balanced Salt Solution (HBSS pH =7.2), was added to each well, incubated at 37 °C for 30 min, and then irradiated (20 J/cm^2 for UVA and 0.5 and 1 J/cm^2 for UVB). After irradiation, the solution was replaced with the medium and the plates were further incubated for 48 h. Cell viability was assayed by the MTT [(3–(4,5-dimethylthiazol-2-yl)-2,5 diphenyl tetrazolium bromide)] test as previously described by Mosmann[27].
Molecules were verified for their photocytotoxicity in the same cell line; the cells were treated with 50 μM solutions of compound and after 30 min were irradiated with 20 J/cm^2 UVA or with UVB at two energy amounts: 0.5 J/cm^2 and 1 J/cm^2 UVB. […] After irradiation, the solution was replaced with growth medium and the cells were further incubated for 48 h, and then, cell viability was assessed by MTT assay. […] The phototoxicity of tested molecules was compared with the ratio of cell survival of irradiated keratinocytes without substance (IC = irradiated control).

[5] = Cytotoxicity, MTT test, 72 h; conditions: human, NCTC-2544 keratinocytes (immortalized, nontumorigenic)
[6] = read-out: % Cell survival UVA 20 J/cm^2
[7] = read-out: % Cell survival UVB 0.5 J/cm^2
[8] = read-out: % Cell survival UVB 1 J/cm^2

Q: Which FRAP [1] does the source give for “2-(2,4-Dihydroxy-phenyl)-1H-benzimidazole [Compound 9]” here?
A: 37.3 ± 0.35 μmolTrolox/mmol

Q: And the “PCL of finished formulation” value [2]?
A: 8.66 ± 0.04 μmol Trolox/g formulation

Q: And the DPPH [3]?
A: 16.47 ± 0.54 μmolTrolox/mmol

Q: What about the PCL [4] of the same compound?
A: 198.53 ± 2.65 μmolTrolox/mmol

Q: What about the “% Cell survival UVA 20 J/cm^2” value (NCTC-2544 cells) of the same compound?
A: 3.7 ± 0.5%

Q: And the “% Cell survival UVB 0.5 J/cm^2” value (NCTC-2544 cells)?
A: 1.1 ± 0.3%

Q: What about the “% Cell survival UVB 1 J/cm^2” value (NCTC-2544 cells) of the same compound?
A: 0.5 ± 0.1%

Q: With “2-(2-Hydroxy-phenyl)-1H-benzimidazole [Compound 10]” as the compound, how does the FRAP [1] read?
A: 23.04 ± 0.09 μmolTrolox/mmol

Q: And the “PCL of finished formulation” value [2]?
A: 0.5 ± 0.02 μmol Trolox/g formulation

Q: What about the DPPH [3] of the same compound?
A: 0.87 ± 0.05 μmolTrolox/mmol

Q: And the PCL [4]?
A: 10.93 ± 0.05 μmolTrolox/mmol

Q: And the “% Cell survival UVA 20 J/cm^2” value (NCTC-2544 cells)?
A: 4.8 ± 0.6%

Q: What about the “% Cell survival UVB 0.5 J/cm^2” value (NCTC-2544 cells) of the same compound?
A: 19.8 ± 2.4%

Q: What about the “% Cell survival UVB 1 J/cm^2” value (NCTC-2544 cells) of the same compound?
A: 3.5 ± 0.3%

Q: What about the “phototoxic effect (cell survival vs irradiated control)” value (NCTC-2544 cells; NCTC-2544, UVA/UVB irradiation) of the same compound?
A: phototoxic effect

Q: What does the source list for `O=S(=O)(O)c1ccc2[nH]c(-c3ccc(O)cc3)nc2c1` [Compound 2, 2-(4-Hydroxy-phenyl)-1H-benzimidazole-5-sulfonic acid]?
A: FRAP [1]: 12.23 ± 0.25 μmolTrolox/mmol; PCL of finished formulation [2]: 0.33 ± 0.03 μmol Trolox/g formulation; DPPH [3]: 2.04 ± 0.15 μmolTrolox/mmol; PCL [4]: 11.36 ± 0.08 μmolTrolox/mmol; IC50 at 72 h [5]: 26.4 ± 2.7 µM; viability at 20 µM (NCTC-2544 cells; [6]): 77.3 ± 2.8%; viability at 20 µM (NCTC-2544 cells; [7]): 78 ± 3.5%; viability at 20 µM (NCTC-2544 cells; [8]): 46.7 ± 3.4%

Q: Which FRAP [1] does the source give for `O=S(=O)(O)c1ccc2[nH]c(-c3ccc(O)c(O)c3)nc2c1` [Compound 3, 2-(3,4-Dihydroxy-phenyl)-1H-benzimidazole-5-sulfonic acid] here?
A: 2707.29 ± 29.52 μmolTrolox/mmol

Q: What about the “PCL of finished formulation” value [2] of the same compound?
A: 2212.09 ± 68.35 μmol Trolox/g formulation

Q: And the DPPH [3]?
A: 2145.31 ± 45.8 μmolTrolox/mmol

Q: What about the PCL [4] of the same compound?
A: 22,838 ± 836,26 μmolTrolox/mmol

Q: And the IC50 at 72 h [5]?
A: > 50 µM

Q: And the viability at 50 µM (NCTC-2544 cells; [6])?
A: 77.4 ± 4%

Q: And the viability at 50 µM (NCTC-2544 cells; [7])?
A: 71.5 ± 2.5%

Q: What about the viability at 50 µM (NCTC-2544 cells; [8]) of the same compound?
A: 58.1 ± 2.6%

Q: And the “cell survival in relation to the irradiated control” value (NCTC-2544 cells; after UVB irradiation 1 J/cm^2)?
A: doubled

Q: With `O=S(=O)(O)c1ccc2[nH]c(-c3ccccc3O)nc2c1` [Compound 4, 2-(2-Hydroxy-phenyl)-1H-benzimidazole-5-sulfonic acid] as the compound, how does the FRAP [1] read?
A: 16.22 ± 0.89 μmolTrolox/mmol

Q: And the “PCL of finished formulation” value [2]?
A: 0.06 ± 0.02 μmol Trolox/g formulation

Q: What about the DPPH [3] of the same compound?
A: 2.03 ± 0.09 μmolTrolox/mmol

Q: And the PCL [4]?
A: 2.06 ± 0.05 μmolTrolox/mmol

Q: And the IC50 at 72 h [5]?
A: > 50 µM

Q: And the viability at 50 µM (NCTC-2544 cells; [6])?
A: 76.9 ± 2%

Q: What about the viability at 50 µM (NCTC-2544 cells; [7]) of the same compound?
A: 74.3 ± 3.2%

Q: What about the viability at 50 µM (NCTC-2544 cells; [8]) of the same compound?
A: 37.7 ± 1.7%

Q: Which results are given for `O=S(=O)(O)c1ccc2[nH]c(-c3ccc(O)cc3O)nc2c1` [Compound 5, 2-(2,4-Dihydroxy-phenyl)-1H-benzimidazole-5-sulfonic acid]?
A: FRAP [1]: 19.87 ± 0.22 μmolTrolox/mmol; PCL of finished formulation [2]: 0.95 ± 0.02 μmol Trolox/g formulation; DPPH [3]: 21.41 ± 043 μmolTrolox/mmol; PCL [4]: 159.1 ± 4.3 μmolTrolox/mmol; IC50 at 72 h [5]: > 50 µM; viability at 50 µM (NCTC-2544 cells; [6]): 79 ± 6%; viability at 50 µM (NCTC-2544 cells; [7]): 70.8 ± 3.9%; viability at 50 µM (NCTC-2544 cells; [8]): 38.6 ± 3.7%
